Source: ChEMBL document CHEMBL4507291 (2021)

Columns and labels:
[1] = biological target: Non-receptor tyrosine-protein kinase TYK2 (Homo sapiens) (UniProt P29597); test: TYK2 Kinase screen; details: Compound concentration 1.0 uM
[2] = biological target: Proto-oncogene tyrosine-protein kinase ROS (Homo sapiens) (UniProt P08922); test: ROS1 Kinase screen; details: Compound concentration 1.0 uM
[3] = biological target: Death-associated protein kinase 1 (Homo sapiens) (UniProt P53355); test: DAPK1 Kinase screen; details: Compound concentration 1.0 uM
Sequence of Death-associated protein kinase 1 (Homo sapiens) (P53355 whole entry, looked up, canonical isoform): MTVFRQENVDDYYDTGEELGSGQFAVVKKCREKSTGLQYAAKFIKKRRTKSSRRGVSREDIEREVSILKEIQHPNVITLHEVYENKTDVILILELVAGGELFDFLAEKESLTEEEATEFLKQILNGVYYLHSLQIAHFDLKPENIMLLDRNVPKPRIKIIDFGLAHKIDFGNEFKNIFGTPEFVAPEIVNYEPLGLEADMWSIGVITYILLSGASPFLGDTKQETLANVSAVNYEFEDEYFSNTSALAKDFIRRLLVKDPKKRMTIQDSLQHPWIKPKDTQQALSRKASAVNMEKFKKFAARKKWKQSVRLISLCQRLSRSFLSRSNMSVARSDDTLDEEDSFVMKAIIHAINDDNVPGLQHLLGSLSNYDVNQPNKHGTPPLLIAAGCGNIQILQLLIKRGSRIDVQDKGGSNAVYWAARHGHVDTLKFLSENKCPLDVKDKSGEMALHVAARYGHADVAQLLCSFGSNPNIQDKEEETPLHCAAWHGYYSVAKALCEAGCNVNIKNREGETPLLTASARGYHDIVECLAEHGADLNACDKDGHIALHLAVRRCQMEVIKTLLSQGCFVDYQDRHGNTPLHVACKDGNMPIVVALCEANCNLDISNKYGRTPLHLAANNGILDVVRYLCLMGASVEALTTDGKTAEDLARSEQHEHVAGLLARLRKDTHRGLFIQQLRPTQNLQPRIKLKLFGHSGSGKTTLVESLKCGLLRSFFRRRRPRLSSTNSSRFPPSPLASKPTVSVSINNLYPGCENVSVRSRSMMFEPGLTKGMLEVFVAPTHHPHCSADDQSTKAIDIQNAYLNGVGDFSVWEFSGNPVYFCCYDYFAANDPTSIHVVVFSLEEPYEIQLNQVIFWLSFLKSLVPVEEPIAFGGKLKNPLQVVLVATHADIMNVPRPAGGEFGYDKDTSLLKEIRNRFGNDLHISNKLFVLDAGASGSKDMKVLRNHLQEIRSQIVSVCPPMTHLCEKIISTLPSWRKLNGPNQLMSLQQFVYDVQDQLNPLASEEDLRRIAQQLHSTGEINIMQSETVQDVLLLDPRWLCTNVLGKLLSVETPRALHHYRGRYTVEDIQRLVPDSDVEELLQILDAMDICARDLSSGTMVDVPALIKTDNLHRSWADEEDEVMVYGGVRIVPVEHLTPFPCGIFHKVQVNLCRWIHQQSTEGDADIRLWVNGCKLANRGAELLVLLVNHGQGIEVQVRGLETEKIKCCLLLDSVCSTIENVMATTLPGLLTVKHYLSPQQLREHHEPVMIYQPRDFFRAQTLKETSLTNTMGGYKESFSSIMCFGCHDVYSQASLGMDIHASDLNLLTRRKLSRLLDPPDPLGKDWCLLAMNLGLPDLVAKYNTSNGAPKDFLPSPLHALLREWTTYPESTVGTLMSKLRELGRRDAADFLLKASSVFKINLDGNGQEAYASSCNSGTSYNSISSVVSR

[4] = biological target: Casein kinase I isoform gamma-2 (Homo sapiens) (UniProt P78368); test: CSNK1G2 (CK1 gamma 2) Kinase screen; details: Compound concentration 1.0 uM
Sequence of Casein kinase I isoform gamma-2 (Homo sapiens) (P78368 whole entry, looked up, canonical isoform): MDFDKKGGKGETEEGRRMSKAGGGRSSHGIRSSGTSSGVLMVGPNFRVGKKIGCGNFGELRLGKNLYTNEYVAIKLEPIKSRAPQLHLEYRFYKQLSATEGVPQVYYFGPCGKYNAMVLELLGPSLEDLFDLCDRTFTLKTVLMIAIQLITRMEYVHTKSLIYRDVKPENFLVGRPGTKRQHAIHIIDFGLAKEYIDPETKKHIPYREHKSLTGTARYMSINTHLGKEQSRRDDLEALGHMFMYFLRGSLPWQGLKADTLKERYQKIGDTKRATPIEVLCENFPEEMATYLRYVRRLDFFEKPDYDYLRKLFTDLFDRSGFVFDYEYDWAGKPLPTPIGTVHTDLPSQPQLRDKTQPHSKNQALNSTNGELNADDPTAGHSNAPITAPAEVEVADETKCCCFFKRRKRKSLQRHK

[5] = biological target: T1, Alpha-1D adrenergic receptor (Homo sapiens) (UniProt P25100); test: Inhibition of Adrenergic alpha1D at 10 µM in the Eurofins-Panlabs radioligand binding assay (Eurofins_assay_203400); details: Compound concentration 10.0 uM
T1 sequence (whole entry): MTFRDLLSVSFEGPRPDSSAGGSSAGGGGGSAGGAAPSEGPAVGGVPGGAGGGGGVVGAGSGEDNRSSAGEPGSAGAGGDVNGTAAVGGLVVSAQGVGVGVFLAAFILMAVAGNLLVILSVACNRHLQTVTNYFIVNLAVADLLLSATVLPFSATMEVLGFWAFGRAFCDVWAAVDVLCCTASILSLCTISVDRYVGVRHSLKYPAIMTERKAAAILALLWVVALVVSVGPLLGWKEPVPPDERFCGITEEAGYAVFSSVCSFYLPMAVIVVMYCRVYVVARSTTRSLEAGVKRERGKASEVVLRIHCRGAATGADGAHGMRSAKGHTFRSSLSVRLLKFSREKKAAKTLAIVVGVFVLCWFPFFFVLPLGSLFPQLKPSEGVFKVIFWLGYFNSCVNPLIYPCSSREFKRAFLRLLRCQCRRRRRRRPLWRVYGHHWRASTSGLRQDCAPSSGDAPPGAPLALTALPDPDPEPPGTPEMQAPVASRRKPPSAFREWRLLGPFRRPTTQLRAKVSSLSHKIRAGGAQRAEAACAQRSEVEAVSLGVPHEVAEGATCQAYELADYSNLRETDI

[6] = biological target: Prostacyclin receptor (Homo sapiens) (UniProt P43119); test: Prostanoid IP Eurofins-Panlabs radioligand binding assay; details: Compound concentration 10.0 uM
Sequence of Prostacyclin receptor (Homo sapiens) (P43119 whole entry): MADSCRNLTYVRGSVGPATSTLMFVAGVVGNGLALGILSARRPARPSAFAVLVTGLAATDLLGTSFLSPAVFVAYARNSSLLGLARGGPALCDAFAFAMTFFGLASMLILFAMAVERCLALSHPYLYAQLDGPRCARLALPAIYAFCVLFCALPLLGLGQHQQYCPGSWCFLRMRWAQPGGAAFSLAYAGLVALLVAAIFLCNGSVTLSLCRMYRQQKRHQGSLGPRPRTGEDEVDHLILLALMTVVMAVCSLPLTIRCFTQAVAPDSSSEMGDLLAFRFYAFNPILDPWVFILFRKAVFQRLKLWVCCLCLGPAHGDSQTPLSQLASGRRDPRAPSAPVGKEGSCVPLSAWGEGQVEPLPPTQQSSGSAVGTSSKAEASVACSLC

[7] = biological target: T2, Serine/threonine-protein kinase TAO2 (Homo sapiens) (UniProt Q9UL54); test: TAOK2 (TAO1) Kinase screen; details: Compound concentration 1.0 uM
T2 sequence (whole entry): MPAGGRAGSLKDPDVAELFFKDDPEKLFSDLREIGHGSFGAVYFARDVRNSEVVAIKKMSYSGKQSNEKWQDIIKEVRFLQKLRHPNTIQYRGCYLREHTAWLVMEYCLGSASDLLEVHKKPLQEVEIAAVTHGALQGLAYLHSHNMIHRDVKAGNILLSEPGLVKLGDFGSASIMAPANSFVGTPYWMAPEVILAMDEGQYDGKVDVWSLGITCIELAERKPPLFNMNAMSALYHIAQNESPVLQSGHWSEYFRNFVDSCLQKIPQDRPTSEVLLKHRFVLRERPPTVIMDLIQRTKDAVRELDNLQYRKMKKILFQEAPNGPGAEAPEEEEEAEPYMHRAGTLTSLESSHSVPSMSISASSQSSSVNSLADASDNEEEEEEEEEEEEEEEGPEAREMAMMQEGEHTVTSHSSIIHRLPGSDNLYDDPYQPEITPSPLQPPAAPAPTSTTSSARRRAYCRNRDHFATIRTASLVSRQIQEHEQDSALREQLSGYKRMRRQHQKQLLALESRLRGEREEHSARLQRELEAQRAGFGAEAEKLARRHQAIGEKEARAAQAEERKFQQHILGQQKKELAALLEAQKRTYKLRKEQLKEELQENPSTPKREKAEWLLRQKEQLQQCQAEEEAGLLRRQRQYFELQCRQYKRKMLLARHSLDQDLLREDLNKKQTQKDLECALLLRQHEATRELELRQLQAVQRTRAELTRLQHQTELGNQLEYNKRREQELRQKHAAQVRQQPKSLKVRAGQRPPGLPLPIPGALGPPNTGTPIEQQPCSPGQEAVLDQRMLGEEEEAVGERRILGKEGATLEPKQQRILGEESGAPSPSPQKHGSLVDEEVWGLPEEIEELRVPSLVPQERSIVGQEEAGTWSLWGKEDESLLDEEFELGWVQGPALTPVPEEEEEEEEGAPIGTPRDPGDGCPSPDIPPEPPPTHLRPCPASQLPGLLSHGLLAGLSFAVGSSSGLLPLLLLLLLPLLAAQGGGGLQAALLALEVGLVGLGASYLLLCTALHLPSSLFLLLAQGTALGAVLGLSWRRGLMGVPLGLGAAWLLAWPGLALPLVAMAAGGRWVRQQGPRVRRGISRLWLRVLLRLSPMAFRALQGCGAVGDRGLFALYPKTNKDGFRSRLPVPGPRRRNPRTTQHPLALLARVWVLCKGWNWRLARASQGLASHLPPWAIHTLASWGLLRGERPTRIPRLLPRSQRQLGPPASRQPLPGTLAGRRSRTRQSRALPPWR

[8] = biological target: T3, Beta-adrenergic receptor kinase 1 (Homo sapiens) (UniProt P25098); test: ADRBK1 (GRK2) Kinase screen; details: Compound concentration 1.0 uM
T3 sequence (whole entry): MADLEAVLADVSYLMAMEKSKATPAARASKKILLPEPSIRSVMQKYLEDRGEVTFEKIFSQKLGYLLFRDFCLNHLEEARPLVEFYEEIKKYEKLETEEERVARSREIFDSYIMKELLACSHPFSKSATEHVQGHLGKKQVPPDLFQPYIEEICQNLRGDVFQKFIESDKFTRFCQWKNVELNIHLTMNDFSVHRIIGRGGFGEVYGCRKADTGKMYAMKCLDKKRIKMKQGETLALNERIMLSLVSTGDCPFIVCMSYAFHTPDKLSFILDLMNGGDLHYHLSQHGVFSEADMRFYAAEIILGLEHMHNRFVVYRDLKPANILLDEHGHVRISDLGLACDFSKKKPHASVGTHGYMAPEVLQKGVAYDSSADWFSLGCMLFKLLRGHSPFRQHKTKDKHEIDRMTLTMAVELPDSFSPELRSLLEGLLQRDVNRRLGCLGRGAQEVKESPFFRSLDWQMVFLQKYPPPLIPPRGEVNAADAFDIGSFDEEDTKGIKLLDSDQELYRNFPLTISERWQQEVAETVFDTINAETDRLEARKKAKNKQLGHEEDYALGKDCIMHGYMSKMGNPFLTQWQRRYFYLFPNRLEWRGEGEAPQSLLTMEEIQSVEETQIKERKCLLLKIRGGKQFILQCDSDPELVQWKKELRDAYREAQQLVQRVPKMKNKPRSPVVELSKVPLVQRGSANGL

Measured: inhibition

Sequence of Non-receptor tyrosine-protein kinase TYK2 (Homo sapiens) (P29597 whole entry): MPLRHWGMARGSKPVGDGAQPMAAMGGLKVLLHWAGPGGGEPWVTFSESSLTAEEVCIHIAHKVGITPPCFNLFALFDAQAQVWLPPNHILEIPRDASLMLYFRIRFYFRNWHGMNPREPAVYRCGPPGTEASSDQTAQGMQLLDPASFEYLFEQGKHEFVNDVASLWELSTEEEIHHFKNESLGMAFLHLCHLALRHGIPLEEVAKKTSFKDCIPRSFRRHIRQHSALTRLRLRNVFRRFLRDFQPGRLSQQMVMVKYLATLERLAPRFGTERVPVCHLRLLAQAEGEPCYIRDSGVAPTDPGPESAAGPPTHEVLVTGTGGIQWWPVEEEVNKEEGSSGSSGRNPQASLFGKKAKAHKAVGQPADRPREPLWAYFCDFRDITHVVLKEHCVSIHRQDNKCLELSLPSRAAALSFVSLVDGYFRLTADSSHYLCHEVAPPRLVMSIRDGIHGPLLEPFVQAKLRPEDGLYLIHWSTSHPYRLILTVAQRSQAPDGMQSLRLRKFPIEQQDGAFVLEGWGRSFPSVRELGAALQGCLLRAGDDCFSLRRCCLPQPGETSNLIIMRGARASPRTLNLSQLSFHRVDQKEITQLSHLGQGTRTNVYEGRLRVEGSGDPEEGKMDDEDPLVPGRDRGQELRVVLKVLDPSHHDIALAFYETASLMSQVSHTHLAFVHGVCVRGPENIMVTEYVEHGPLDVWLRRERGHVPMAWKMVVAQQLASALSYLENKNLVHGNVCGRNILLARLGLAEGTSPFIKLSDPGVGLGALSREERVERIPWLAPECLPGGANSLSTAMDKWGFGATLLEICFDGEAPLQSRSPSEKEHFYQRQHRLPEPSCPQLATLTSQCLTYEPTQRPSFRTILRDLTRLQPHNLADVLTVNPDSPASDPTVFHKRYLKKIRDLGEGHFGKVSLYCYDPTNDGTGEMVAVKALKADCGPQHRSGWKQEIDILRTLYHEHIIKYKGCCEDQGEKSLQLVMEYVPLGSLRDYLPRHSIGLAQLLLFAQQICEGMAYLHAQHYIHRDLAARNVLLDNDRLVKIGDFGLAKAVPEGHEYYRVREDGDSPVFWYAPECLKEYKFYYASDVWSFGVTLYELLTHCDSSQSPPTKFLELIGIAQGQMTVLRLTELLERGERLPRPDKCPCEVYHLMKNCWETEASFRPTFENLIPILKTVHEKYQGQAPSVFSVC

C[C@@H]1CN(c2cc(-c3n[nH]c4ccc(OC5(C)CC5)cc34)ncn2)C[C@H](C)O1 [MLi-2]
inactive: [1] 1.17% | [2] 2.52% | [3] -0.645% | [4] 2.4% | [5] 1% | [6] -9% | [7] -2.67% | [8] 3.84%
